Literature values in US11793762B2, “Composition and method for reducing joint pain associated with hemarthrosis and hemophilic arthropathy” (UPEXMED CO. LTD., priority 2018, dated 2023).
Values after ≈ are worked out from the molar mass of the structure shown.

solubility in water: 4300 µg/mL (≈ 11.3 mM)
Compound: Cc1ccc(-c2cc(C(F)(F)F)nn2-c2ccc(S(N)(=O)=O)cc2)cc1 [Celecoxib]
